Key:
[1] = system: NHDF-ad cells; test: GFP expression after gene transfer with lipoplexes (Example 4); format: cell-based, human; settings: GFP-expression plasmid
Description: A solvent was removed from each of chloroform solutions (1 mg/ml) of polyamidoamine dendrons (DL-G1 and DL-G1-U2) using a rotary evaporator to form 111.5 μg of lipid thin films. The thin films were dried in vacuo for 2 hours. Then, […] of phosphate buffered saline (PBS) were added. The mixtures were further sonicated for 2 minutes using a bath-type ultrasonicator to give 160 μl of lipid dispersion liquids. In addition, a solution (20 μg/ml, 160 μl) prepared by dissolving plasmid DNA in a 20 mM Tris-HCl buffer was added to each of the lipid dispersion liquids so as to obtain different N/P ratios. Then, the liquids were incubated at room temperature for 30 minutes to obtain lipoplexes.
pEGFP-C1 expressing a green fluorescent protein was used as a gene transfer plasmid, and NHDF-ad cells were used as target cells. Lipoplexes were prepared using, individually, DL-U2 and DL-G1. Then, gene transfer was performed.
NHDF-ad cells were seeded in a 24-well plate.
(NHDF-ad cells: 2.5×10^4 cells/well·DMEM+10% FBS (Pe/St) 500 μl)
(i) A 20 mM Tris-HCl (pH 7.4) buffer was dispensed into two tubes at, individually, 56.3 μl (for NP ratio=3) and 37.5 μl (for NP ratio=6).
(ii) 1.0 μg of plasmid DNA (pCAG-GFP) was added to each of the two tubes prepared in step (i) at 2 μl (1.0 μg), and the contents were stirred. […]

[2] = system: NHDF-ad cells; test: Multiple gene transfer, GFP expression (Example 7); format: cell-based, human; settings: transfer on Day 1, 3, 5, observed Day 7
Description: pEGFP-C1 expressing a green fluorescent protein was used as a gene transfer plasmid, and NHDF-ad cells, which were normal […] cells derived from adult humans also used for production of iPS cells, were used as target cells. Lipoplexes were individually prepared using DL-U2. Then, gene transfer was performed multiple times.
(NHDF-ad cells: 2×10^4 cells/well·DMEM+10% FBS (Pe/St) 500 μl)
(i) A 20 mM Tris-HCl (pH 7.4) buffer was dispensed into tubes at 71 μl (for NP ratio=6).
(ii) 2.0 μg of plasmid DNA (pCAG-GFP) were added to each of the two tubes prepared in step (i) at 4 μl (2.0 μg), and the contents were stirred.
(iii) To the prepared plasmid DNA solution was added 75 μl of a DL-U2 liposome solution (N/P ratio=6), and the whole was thoroughly mixed using a vortex and incubated at room temperature for 30 minutes.
(iv) 50 μl of an Opti-MEM(R) I Reduced-Serum Medium was further added, and the whole was thoroughly mixed and allowed to stand at room temperature for 5 minutes.
(v) 100 μl per well of the DL-plasmid DNA complex solutions was individually added to one well, and the contents were mixed by shaking the plate so as to be homogeneous.
(vi) The cells were incubated at 37° C. in 5% CO2 for 4 hours, and the growth medium was replaced.
For the cells subjected to gene transfer operations on Day 1, the same gene transfer was performed on Day 3 and Day 5 as well.

[3] = system: COS-7; test: Gene transfer (GFP expression, luciferase activity) versus commercial agents (Example 5); format: cell-based; settings: COS-7 adherent cells; compared with Lipofectamine LTX and FuGENE HD
Description: pEGFP-C1 expressing a green fluorescent protein was used as a gene transfer plasmid; and adherent cells COS-7 and Hela-S3, and non-adherent cells K562, which were established cell lines, were used as target cells. Lipoplexes were individually prepared using DL-U2. Then, gene transfer was performed.
(COS7 cells: 2.0×10^4 cells/well·DMEM+10% FBS (Pe/St) 500 μl)
(i) A 20 mM Tris-HCl (pH 7.4) buffer was dispensed into three tubes at 35.5 μl (for NP ratio=6) for each of two tubes, and 23 μl (for NP ratio=8) for the remaining tube.
(ii) 1.0 μg of plasmid DNA (pCAG-GFP) was added to each of the three tubes prepared in step (i) at 2 μl (1.0 μg), and the contents were stirred.
(iii) A DL-U2 liposome solution was added to the three tubes prepared in step (ii) at 37.5 μl (N/P ratio=6) for each of two tubes, and 50 μl (N/P ratio=8) for the remaining tube.
(iv) 25 μl of an Opti-MEM (registered trademark) I Reduced-Serum Medium was further added, and the whole was thoroughly mixed and allowed to stand at room temperature for 5 minutes.
(v) 100 μl of the DL-plasmid DNA complex solution (N/P ratio=6) was added and mixed with the COS7 cells. […]
(vii) 48 hours later, luciferase activity was measured according to the protocol of the luciferase assay system (Promega, E1501) (relative values based on the activity of LTX defined as 1 were graphed).

CCCCCCCC/C=C\CCCCCCCCN(CCCCCCCC/C=C\CCCCCCCC)CCC(=O)NCCN(CCC(=O)NCCN)CCC(=O)NCCN (racemic) [DL-G1-U2]
gene transfer into NHDF-ad cells [1]: allowed the gene to be transferred
gene transfer activity / gene expression after multiple gene transfer [2]: allowed the gene to be expressed most efficiently
gene transfer activity [3]: excellent gene transfer activity
